Assays:
Details in all cases: 72 h
LAMA-84 = assay: cell viability (% survival relative to DMSO control, bortezomib = 0%); higher = less cytotoxic
In short: (§1)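 Fifteen myeloid leukaemia cell lines (10 AML, 5 CML) were seeded at a density titrated to the linear growth range. They went into 384-well plates with compounds pre-printed at 1, 10, 100, 1000 or 10000 nM in duplicate. After 72 h at 37 °C with 5% CO2, viability was read by CellTiter-Glo luminescence. Values are percent survival, with vehicle set to 100% and a 10 µM positive control to 0%, averaged over the duplicates.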

THP-1 = assay: as above
In short: as §1

Mono-Mac-6 = assay: as above
In short: as §1

KG-1 = assay: as above
In short: as §1

ML-2 = assay: as above
In short: as §1

MOLM-13 = assay: as above
In short: as §1

SHI-1 = assay: as above
In short: as §1

K-562 = assay: as above
In short: as §1

KCL-22 = assay: as above
In short: as §1

KU-812 = assay: as above
In short: as §1

BV-173 = assay: as above
In short: as §1

NOMO-1 [1] = assay: as above
In short: as §1

MV4-11 = assay: as above
In short: as §1

HEL = assay: as above
In short: as §1

HL-60 [2] = assay: as above
In short: as §1

NOMO-1 [3] = system: NOMO-1
In short: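 Seeded in RPMI 1640 at densities within the linear growth range, fifteen myeloid leukaemia cell lines were dispensed into 384-well plates with acoustically pre-printed compounds spanning five tenfold doses from 1 to 10,000 nM, in duplicate. The plates were kept for 72 h at 37 °C in 5% CO2 before luminescent ATP viability was measured and normalised to vehicle and to a positive control at 10 µM. Curves were fitted with a four-parameter log-logistic model. The IC50 was taken from those curves.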

HL-60 [4] = assay: cell viability (% survival relative to DMSO control); higher = less cytotoxic
In short: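 In 384-well plates, the full library was rescreened in duplicate on HL-60 cells in RPMI 1640 with 10% FBS, at 1–10,000 nM in five tenfold concentrations, for 72 h at 37 °C, 5% CO2. Each run also held DMSO or 100 nM of one of three metabolic inhibitors. Viability was measured by CellTiter-Glo and normalised to DMSO wells and to wells with proteasome inhibitor, present at 10 μM. Any area under the curve comes from four-parameter log-logistic fitting with drc and PharmacoGx.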

CCCC(CCC)C(=O)O [Valproic acid]
cell viability [%]
Details | 1 nM | 10 nM | 100 nM | 1000 nM | 10000 nM
BV-173 | 88.5 | 93.5 | 87.8 | 104 | 90.6
HEL | 119 | 103 | 94.5 | 108 | 106
HL-60 [2] | 87.3 | 96.2 | 99.2 | 87.9 | 103
K-562 | 107 | 95.7 | 98.6 | 109 | 112
KCL-22 | 108 | 94.1 | 96.2 | 127 | 95.5
KG-1 | 90.2 | 98.7 | 93 | 90.4 | 108
KU-812 | 95.6 | 86.5 | 92.6 | 99.5 | 97.2
LAMA-84 | 106 | 91.7 | 96.2 | 102 | 106
ML-2 | 106 | 95.6 | 93 | 99.3 | 91.5
MOLM-13 | 105 | 100 | 100 | 76 | 105
MV4-11 | 111 | 86.6 | 102 | 96.6 | 97.5
Mono-Mac-6 | 96.3 | 98.2 | 98.3 | 105 | 99.1
NOMO-1 [1] | 93.8 | 93.6 | 94.6 | 98.5 | 104
SHI-1 | 106 | 94.8 | 95.9 | 92.5 | 101
THP-1 | 104 | 93.2 | 93.7 | 102 | 91.2

Details | IC50 (cell viability) [µM]
NOMO-1 [3] | > 10

cell viability [%], HL-60 [4]
Details | 0.001 µM | 0.01 µM | 0.1 µM | 1 µM | 10 µM
co-treatment: AZD3965 100 nM | 101.96 | 103 | 94.7 | 97.8 | 106
co-treatment: DMSO vehicle | 102 | 99.9 | 98.5 | 96.68 | 105
co-treatment: GSK2194069 100 nM | 95.2 | 106 | 98.1 | 93.9 | 106
co-treatment: pictilisib 100 nM | 98.6 | 101 | 95 | 89.6 | 101

O=C(Oc1cccc(F)c1OC(=O)c1cccc(O)c1)c1cccc(O)c1 [WZB117]
cell viability [%]
Details | 1 nM | 10 nM | 100 nM | 1000 nM | 10000 nM
BV-173 | 96 | 104 | 90.5 | 98.8 | 15.4
HEL | 107 | 110 | 95.2 | 99.8 | 72.7
HL-60 [2] | 102 | 98 | 93.3 | 104 | 48
K-562 | 96.2 | 101 | 102 | 106 | 79.1
KCL-22 | 101 | 91.4 | 92 | 110 | 70.6
KG-1 | 113 | 95.7 | 87.6 | 90.4 | 30.7
KU-812 | 99.1 | 103 | 90.9 | 99.9 | 9.71
LAMA-84 | 97.9 | 98.6 | 92.4 | 95.1 | 101
ML-2 | 102 | 104 | 98.7 | 98.8 | 25.5
MOLM-13 | 92.2 | 125 | 94.7 | 94 | 44.8
MV4-11 | 106 | 85.9 | 97 | 88.2 | 25.4
Mono-Mac-6 | 96.6 | 104 | 99.7 | 101 | 16.9
NOMO-1 [1] | 95.5 | 94.3 | 94.1 | 111 | 82.1
SHI-1 | 95.8 | 95.6 | 102 | 103 | 72.5
THP-1 | 101 | 102 | 101 | 108 | 64.9

Details | IC50 (cell viability) [µM]
NOMO-1 [3] | > 10

cell viability [%], HL-60 [4]
Details | 0.001 µM | 0.01 µM | 0.1 µM | 1 µM | 10 µM
co-treatment: AZD3965 100 nM | 102.1 | 97.3 | 103.1 | 101.6 | 68.9
co-treatment: DMSO vehicle | 103 | 98.8 | 99 | 101 | 73.3
co-treatment: GSK2194069 100 nM | 102 | 91.2 | 95.2 | 99.8 | 84.6
co-treatment: pictilisib 100 nM | 111 | 100 | 96.8 | 97.1 | 70.9

OCC(CO)N[C@H]1C[C@](O)(CO)[C@@H](O)[C@H](O)[C@H]1O [Voglibose]
cell viability [%]
Details | 1 nM | 10 nM | 100 nM | 1000 nM | 10000 nM
BV-173 | 113 | 112 | 99.3 | 93.8 | 102
HEL | 124 | 107 | 97.3 | 99.1 | 118
HL-60 [2] | 119 | 99.5 | 116 | 88.2 | 94.6
K-562 | 97.9 | 107 | 113 | 89.4 | 99.3
KCL-22 | 99.4 | 97.1 | 98 | 98.1 | 111
KG-1 | 95.6 | 102 | 107 | 95.6 | 106
KU-812 | 97.5 | 109 | 106 | 88.5 | 91.3
LAMA-84 | 102 | 105 | 99.6 | 94.6 | 103
ML-2 | 109 | 110 | 107 | 95.2 | 111
MOLM-13 | 117 | 94.4 | 127 | 70 | 70.1
MV4-11 | 106 | 107 | 113 | 84.7 | 52.7
Mono-Mac-6 | 102 | 96 | 109 | 86.7 | 91.8
NOMO-1 [1] | 103 | 103 | 107 | 99.1 | 102
SHI-1 | 106 | 108 | 100 | 96 | 94.4
THP-1 | 108 | 96 | 93 | 101 | 99.1

Details | IC50 (cell viability) [µM]
NOMO-1 [3] | > 10

cell viability [%], HL-60 [4]
Details | 0.001 µM | 0.01 µM | 0.1 µM | 1 µM | 10 µM
co-treatment: AZD3965 100 nM | 96.2 | 103 | 100 | 96.5 | 93.58
co-treatment: DMSO vehicle | 99.5 | 99.9 | 100 | 99.4 | 99.5
co-treatment: GSK2194069 100 nM | 104 | 104 | 104 | 79.9 | 97.3
co-treatment: pictilisib 100 nM | 113 | 112 | 106 | 81.9 | 99.1
